Results reported in the supplement of paper PMC10307832.

Tests used:
Test in all cases: relative viability (nuclei count vs DMSO), 5 days (fraction); higher = more cells survive
[1] = tested on: HCC-366
Summary of the method: (§1)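 Lung cancer cell lines were pin-tool dosed in 1536-well plates on the day after seeding, with either a lone drug or a fixed anchor-drug dose plus five library-drug doses (not always all listed) in √10 steps. Nuclei were counted on 4× images after 5 days. Relative viability is the ratio of treated-well to vehicle-well nuclei counts, with each value a median of duplicate plates.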

[2] = tested on: SK-MES-1
Summary of the method: as §1

[3] = tested on: LC-2-ad
Summary of the method: as §1

[4] = tested on: NCI-H1395
Summary of the method: as §1

[5] = tested on: NCI-H1734
Summary of the method: as §1

[6] = tested on: EKVX
Summary of the method: as §1

[7] = tested on: NCI-H2170
Summary of the method: as §1

[8] = tested on: NCI-H647
Summary of the method: as §1

[9] = tested on: LOU-NH91
Summary of the method: as §1

[10] = tested on: NCI-H2087
Summary of the method: as §1

[11] = tested on: SK-LU-1
Summary of the method: as §1

[12] = tested on: NCI-H596
Summary of the method: as §1

[13] = tested on: NCI-H1355
Summary of the method: as §1

[14] = tested on: NCI-H2009
Summary of the method: as §1

[15] = tested on: HCC-827
Summary of the method: as §1

[16] = tested on: NCI-H2342
Summary of the method: as §1

[17] = tested on: NCI-H2228
Summary of the method: as §1

[18] = tested on: NCI-H1437
Summary of the method: as §1

[19] = tested on: NCI-H2405
Summary of the method: as §1

[20] = tested on: HARA
Summary of the method: as §1

[21] = tested on: NCI-H661
Summary of the method: as §1

[22] = tested on: BEN
Summary of the method: as §1

Compound: O=C(O)c1ccc(-c2c[nH]c3ncc(-c4ccccc4)cc23)cc1C1CCCC1 + O=C(CCCCCCC(=O)Nc1ccccc1)NO [Vorinostat] (partner 1 µM)
- relative viability ([1]; first compound 0.04 µM): 0.368
- relative viability ([1]; first compound 0.1265 µM): 0.531
- relative viability ([1]; first compound 0.4 µM): 0.394
- relative viability ([1]; first compound 1.265 µM): 0.403
- relative viability ([2]; first compound 0.04 µM): 1.13
- relative viability ([2]; first compound 0.1265 µM): 1.19
- relative viability ([2]; first compound 0.4 µM): 1.27
- relative viability ([2]; first compound 1.265 µM): 0.876
- relative viability ([3]; first compound 0.04 µM): 0.692
- relative viability ([3]; first compound 0.1265 µM): 0.696
- relative viability ([3]; first compound 0.4 µM): 0.668
- relative viability ([3]; first compound 1.265 µM): 0.454
- relative viability ([4]; first compound 0.04 µM): 0.7
- relative viability ([4]; first compound 0.1265 µM): 0.67
- relative viability ([4]; first compound 0.4 µM): 0.672
- relative viability ([4]; first compound 1.265 µM): 0.683
- relative viability ([5]; first compound 0.04 µM): 0.866
- relative viability ([5]; first compound 0.1265 µM): 0.858
- relative viability ([5]; first compound 0.4 µM): 0.876
- relative viability ([5]; first compound 1.265 µM): 0.648
- relative viability ([6]; first compound 0.04 µM): 0.846
- relative viability ([6]; first compound 0.1265 µM): 0.758
- relative viability ([6]; first compound 0.4 µM): 0.713
- relative viability ([6]; first compound 1.265 µM): 0.712
- relative viability ([7]; first compound 0.04 µM): 0.82
- relative viability ([7]; first compound 0.1265 µM): 0.863
- relative viability ([7]; first compound 0.4 µM): 0.893
- relative viability ([7]; first compound 1.265 µM): 0.734
- relative viability ([8]; first compound 0.04 µM): 0.645
- relative viability ([8]; first compound 0.1265 µM): 0.47
- relative viability ([8]; first compound 0.4 µM): 0.491
- relative viability ([8]; first compound 1.265 µM): 0.361
- relative viability ([9]; first compound 0.04 µM): 0.987
- relative viability ([9]; first compound 0.1265 µM): 0.992
- relative viability ([9]; first compound 0.4 µM): 0.942
- relative viability ([9]; first compound 1.265 µM): 0.86
- relative viability ([10]; first compound 0.04 µM): 0.916
- relative viability ([10]; first compound 0.1265 µM): 0.924
- relative viability ([10]; first compound 0.4 µM): 0.611
- relative viability ([10]; first compound 1.265 µM): 0.465
- relative viability ([11]; first compound 0.04 µM): 0.793
- relative viability ([11]; first compound 0.1265 µM): 0.717
- relative viability ([11]; first compound 0.4 µM): 0.684
- relative viability ([11]; first compound 1.265 µM): 0.364
- relative viability ([12]; first compound 0.04 µM): 0.499
- relative viability ([12]; first compound 0.1265 µM): 0.657
- relative viability ([12]; first compound 0.4 µM): 0.583
- relative viability ([12]; first compound 1.265 µM): 0.571
- relative viability ([13]; first compound 0.04 µM): 0.647
- relative viability ([13]; first compound 0.1265 µM): 0.753
- relative viability ([13]; first compound 0.4 µM): 0.694
- relative viability ([13]; first compound 1.265 µM): 0.615
- relative viability ([14]; first compound 0.04 µM): 0.719
- relative viability ([14]; first compound 0.1265 µM): 0.733
- relative viability ([14]; first compound 0.4 µM): 0.744
- relative viability ([14]; first compound 1.265 µM): 0.635
- relative viability ([15]; first compound 0.04 µM): 0.372
- relative viability ([15]; first compound 0.1265 µM): 0.913
- relative viability ([15]; first compound 0.4 µM): 0.815
- relative viability ([15]; first compound 1.265 µM): 0.75
- relative viability ([16]; first compound 0.04 µM): 0.783
- relative viability ([16]; first compound 0.1265 µM): 0.762
- relative viability ([16]; first compound 0.4 µM): 0.818
- relative viability ([16]; first compound 1.265 µM): 0.874
- relative viability ([17]; first compound 0.04 µM): 0.831
- relative viability ([17]; first compound 0.1265 µM): 0.652
- relative viability ([17]; first compound 0.4 µM): 0.745
- relative viability ([17]; first compound 1.265 µM): 0.291
- relative viability ([18]; first compound 0.04 µM): 0.842
- relative viability ([18]; first compound 0.1265 µM): 0.814
- relative viability ([18]; first compound 0.4 µM): 0.531
- relative viability ([18]; first compound 1.265 µM): 0.326
- relative viability ([19]; first compound 0.04 µM): 1.02
- relative viability ([19]; first compound 0.1265 µM): 1.12
- relative viability ([19]; first compound 0.4 µM): 0.944
- relative viability ([19]; first compound 1.265 µM): 0.668
- relative viability ([20]; first compound 0.04 µM): 0.558
- relative viability ([20]; first compound 0.1265 µM): 0.49
- relative viability ([20]; first compound 0.4 µM): 0.568
- relative viability ([20]; first compound 1.265 µM): 0.405
- relative viability ([21]; first compound 0.04 µM): 0.766
- relative viability ([21]; first compound 0.1265 µM): 0.763
- relative viability ([21]; first compound 0.4 µM): 0.787
- relative viability ([21]; first compound 1.265 µM): 0.787
- relative viability ([22]; first compound 0.04 µM): 0.507
- relative viability ([22]; first compound 0.1265 µM): 0.614
- relative viability ([22]; first compound 0.4 µM): 0.475
- relative viability ([22]; first compound 1.265 µM): 0.505
